Source: patent publication US20180099931A1 (AbbVie S.à.r.l., priority 2016, published 2018)
Read-outs that look alike come from different tables or passages of the source.

Target: T1, F508delCFTR (Homo sapiens, UniProt P13569, DEL508-508)
T1 construct: expressed in transfected cells; host or cells: CFBE41o- human lung-derived epithelial cells (CFBE4lo-F508delCFTR-HRP), doxycycline-inducible
Experiment: Cell Surface Expression-Horse Radish Peroxidase (CSE-HRP) Assay;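 on Maximum % activity (with co-corrector): co-corrector and positive control are both the same reference corrector at 2 µM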;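 on Maximum % activity (without co-corrector): percent of the 2 µM on-plate positive control corrector response above DMSO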
Assay type: cell-based
Details: for Maximum % activity (with co-corrector) / Emax: maximum at any tested concentration, normalized to on-plate positive control; for Emax: read-out: Maximum % activity (without co-corrector)

[1] = test compound without co-corrector, read-out: EC50 (without co-corrector)
[2] = with co-corrector (2 μM of 3-[(2R,4R)-4-({[1-(2,2-difluoro-1,3-benzodioxol-5-yl)cyclopropyl]carbonyl}amino)-7-methoxy-3,4-dihydro-2H-chromen-2-yl]benzoic acid), read-out: EC50 (with co-corrector)
[3] = CSE-HRP, test compound without co-corrector, read-out: EC50 (without co-corrector)
[4] = CSE-HRP, with co-corrector (2 μM of 3-[(2R,4R)-4-({[1-(2,2-difluoro-1,3-benzodioxol-5-yl)cyclopropyl]carbonyl}amino)-7-methoxy-3,4-dihydro-2H-chromen-2-yl]benzoic acid), read-out: EC50 (with co-corrector)
[5] = CSE-HRP, with co-corrector (2 μM)
[6] = test compound without co-corrector
[7] = with co-corrector (2 μM of 3-[(2R,4R)-4-({[1-(2,2-difluoro-1,3-benzodioxol-5-yl)cyclopropyl]carbonyl}amino)-7-methoxy-3,4-dihydro-2H-chromen-2-yl]benzoic acid)

T1 sequence (P13569 with tags, fused parts or gaps DEL508-508): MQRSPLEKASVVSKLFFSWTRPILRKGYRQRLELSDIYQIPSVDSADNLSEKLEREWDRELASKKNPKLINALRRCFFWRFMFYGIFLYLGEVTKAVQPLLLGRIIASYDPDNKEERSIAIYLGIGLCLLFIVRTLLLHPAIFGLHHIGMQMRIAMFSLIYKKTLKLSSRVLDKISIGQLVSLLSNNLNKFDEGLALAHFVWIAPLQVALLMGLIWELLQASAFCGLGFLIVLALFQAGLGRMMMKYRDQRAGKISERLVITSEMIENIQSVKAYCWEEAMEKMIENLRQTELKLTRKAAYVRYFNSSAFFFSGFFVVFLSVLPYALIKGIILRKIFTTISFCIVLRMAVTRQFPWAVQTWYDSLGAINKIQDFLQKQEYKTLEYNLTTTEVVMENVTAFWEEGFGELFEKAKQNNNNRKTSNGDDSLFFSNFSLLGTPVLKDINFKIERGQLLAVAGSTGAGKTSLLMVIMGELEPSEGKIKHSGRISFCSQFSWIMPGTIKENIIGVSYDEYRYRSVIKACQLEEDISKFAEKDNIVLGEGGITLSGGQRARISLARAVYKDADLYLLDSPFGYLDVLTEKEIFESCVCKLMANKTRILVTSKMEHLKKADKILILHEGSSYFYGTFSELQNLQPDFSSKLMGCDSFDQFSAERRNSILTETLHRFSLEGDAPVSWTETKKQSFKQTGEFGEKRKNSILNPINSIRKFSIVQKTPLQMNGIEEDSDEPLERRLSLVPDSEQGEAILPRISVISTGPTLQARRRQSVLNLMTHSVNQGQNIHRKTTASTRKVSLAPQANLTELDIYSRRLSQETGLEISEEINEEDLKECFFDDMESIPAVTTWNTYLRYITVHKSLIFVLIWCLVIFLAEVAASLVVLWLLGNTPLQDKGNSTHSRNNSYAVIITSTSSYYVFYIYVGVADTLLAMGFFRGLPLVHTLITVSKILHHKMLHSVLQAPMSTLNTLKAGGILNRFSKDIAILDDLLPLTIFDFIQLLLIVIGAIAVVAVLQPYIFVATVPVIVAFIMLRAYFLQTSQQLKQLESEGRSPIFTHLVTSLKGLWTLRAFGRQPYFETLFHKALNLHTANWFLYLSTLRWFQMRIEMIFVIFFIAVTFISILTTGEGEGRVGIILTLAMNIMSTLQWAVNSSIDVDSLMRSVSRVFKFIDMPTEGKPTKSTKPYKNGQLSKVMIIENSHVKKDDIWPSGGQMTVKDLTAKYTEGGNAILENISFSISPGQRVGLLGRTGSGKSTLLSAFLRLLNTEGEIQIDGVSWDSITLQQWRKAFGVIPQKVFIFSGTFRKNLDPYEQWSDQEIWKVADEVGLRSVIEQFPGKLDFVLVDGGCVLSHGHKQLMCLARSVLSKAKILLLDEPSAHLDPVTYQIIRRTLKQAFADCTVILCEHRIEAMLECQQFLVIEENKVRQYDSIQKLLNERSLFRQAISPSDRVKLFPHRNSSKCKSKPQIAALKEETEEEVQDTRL

| EC50 [1] | EC50 [2] | Maximum % activity (with co-corrector) (with co-corrector (2 μM)) | Emax (without co-corrector) | EC50 [3] | EC50 [4] | Maximum % activity (with co-corrector) [5] | Emax (CSE-HRP, without co-corrector) | Emax [6] | Maximum % activity (with co-corrector) [7] | Structure (SMILES) |
| --- | --- | --- | --- | --- | --- | --- | --- | --- | --- | --- |
| < 1000 nM | < 1000 nM | +++ (≥350) | 100 to 200% |  |  |  |  |  |  | COc1ncc(C(F)(F)F)cc1CN[C@H]1[C@H](C(C)(C)C)[C@@H](C(=O)O)N(C(=O)C2CCCCC2)[C@H]1c1ccccc1 [Example 12, (2S,3S,4S,5S)-3-tert-butyl-1-(cyclohexanecarbonyl)-4-({[2-methoxy-5-(trifluoromethyl)pyridin-3-yl]methyl}amino)-5-phenylpyrrolidine-2-carboxylic acid] |
|  |  |  |  | 1000 to 10000 nM | 1000 to 10000 nM | +++ (≥350) | > 200% |  |  | COc1ccc(C(F)(F)F)cc1CN[C@@H]1[C@@H](C(C)(C)C)[C@H](C(=O)O)N(C(=O)C2CCCOC2)[C@@H]1c1ccccc1N(C)C (mixture of isomers) [II-21] |
| 1000 to 10000 nM | 1000 to 10000 nM |  |  |  |  |  |  | > 200% | +++ (≥350) | COc1ccc(OC(F)(F)F)cc1CN[C@H]1[C@H](C(C)(C)C)[C@@H](C(=O)O)N(C(=O)OC(C)C)[C@H]1c1ccccc1 [II-523] |
| 1000 to 10000 nM | 1000 to 10000 nM |  |  |  |  |  |  | 100 to 200% | +++ (≥350) | COc1cc(C(F)(F)F)ccc1CN[C@H]1[C@H](C(C)(C)C)[C@@H](C(=O)O)N(C(=O)OC(C)C)[C@H]1c1cccnc1OC [II-513] |
| 1000 to 10000 nM | < 1000 nM |  |  |  |  |  |  | > 200% | +++ (≥350) | COc1ccc(C(C)(C)C)cc1CN[C@H]1[C@H](C(C)(C)C)[C@@H](C(=O)O)N(C(=O)[C@@H]2CCC[C@@H](OC(F)(F)F)C2)[C@H]1c1cccnc1OC [II-540] |
| 1000 to 10000 nM | 1000 to 10000 nM | +++ (≥350) | > 200% |  |  |  |  |  |  | COc1ccc(C(C)(C)C)cc1CN[C@H]1[C@H](C(C)(C)C)[C@@H](C(=O)O)N(C(=O)C2CCCCC2C(=O)N2CCC2)[C@H]1c1ccccc1 (some centres unmarked) [Example I-149] |
| 1000 to 10000 nM | 1000 to 10000 nM |  |  |  |  |  |  | < 100% | ++ (≥150 and <350) | COc1ccccc1[C@@H]1[C@H](NCc2cccc3c2OC(F)(F)O3)[C@@H](C(C)(C)C)[C@H](C(=O)O)N1C(=O)C1CCCCC1 (racemic) [III-45] |
| < 1000 nM | < 1000 nM | +++ (≥350) | > 200% |  |  |  |  |  |  | COc1ncc(-c2ccccc2F)cc1CN[C@H]1[C@H](C(C)(C)C)[C@@H](C(=O)O)N(C(=O)C2CCCCC2)[C@H]1c1ccccc1 [Example I-140] |
|  |  |  |  | 1000 to 10000 nM | 1000 to 10000 nM | +++ (≥350) | > 200% |  |  | COc1cc(Cl)ccc1CN[C@@H]1[C@@H](C(C)(C)C)[C@H](C(=O)O)N(C(=O)OC(C)C)[C@@H]1c1ccccc1 (racemic) [II-45] |
| < 1000 nM | < 1000 nM | +++ (≥350) |  |  |  |  |  | > 200% |  | COc1ccc(C(C)(C)C)cc1CN[C@H]1[C@H](C(C)(C)C)[C@@H](C(=O)O)N(C(=O)C2CC2c2cccs2)[C@H]1c1ccccc1 (some centres unmarked) [III-193] |
|  |  |  |  | < 1000 nM | < 1000 nM | +++ (≥350) | > 200% |  |  | COc1ccc(C(C)(C)C)cc1CN[C@H]1[C@H](C(C)(C)C)[C@@H](C(=O)O)N(C(=O)C(OC)c2cccc(Cl)c2)[C@H]1c1ccccc1 (single isomer, unassigned) [II-270] |
|  |  |  |  | < 1000 nM | < 1000 nM | +++ (≥350) | 100 to 200% |  |  | COc1ncc(C2CCC2)cc1CN[C@H]1[C@H](C(C)(C)C)[C@@H](C(=O)O)N(C(=O)[C@@H]2CCCCO2)[C@H]1c1ccccc1Br [Example I-291] |
|  |  |  |  | 1000 to 10000 nM | < 1000 nM | +++ (≥350) | > 200% |  |  | COc1ccc(C2(C)CCC2)cc1CN[C@H]1[C@H](C(C)(C)C)[C@@H](C(=O)O)N(C(=O)[C@@H]2CCCO2)[C@H]1c1ccccc1Br [Example I-295] |
| < 1000 nM | < 1000 nM | +++ (≥350) | > 200% |  |  |  |  |  |  | COc1ncc(C(F)(F)F)cc1CN[C@H]1[C@H](C(C)(C)C)[C@@H](C(=O)O)N(C(=O)[C@@H]2CCCCO2)[C@H]1c1ccccc1C(C)C [Example 84, (2S,3S,4S,5S)-3-tert-butyl-4-({[2-methoxy-5-(trifluoromethyl)pyridin-3-yl]methyl}amino)-1-[(2S)-oxane-2-carbonyl]-5-[2-(propan-2-yl)phenyl]pyrrolidine-2-carboxylic acid] |
| 1000 to 10000 nM | < 1000 nM | +++ (≥350) | > 200% |  |  |  |  |  |  | COc1ccc(C(F)(F)F)cc1CN[C@H]1[C@H](C(C)(C)OC)[C@@H](C(=O)O)N(C(=O)C2CCCCC2)[C@H]1c1ccccc1 [Example I-63] |
|  |  |  |  | 1000 to 10000 nM | 1000 to 10000 nM | ++ (≥150 and <350) | < 100% |  |  | COc1ccc(C(F)(F)F)cc1CN[C@H]1[C@H](C(C)(C)C)[C@@H](C(=O)O)N(C(=O)C2COc3ccccc3O2)[C@H]1c1ccccc1 (some centres unmarked) [II-156] |
| > 10000 nM | 1000 to 10000 nM | ++ (≥150 and <350) | < 100% |  |  |  |  |  |  | COc1ncc(C(F)(F)F)cc1N[C@H]1[C@H](C(C)(C)C)[C@@H](C(=O)O)N(C(=O)[C@@H]2CCCCO2)[C@H]1c1cccnc1N(C)C [Example I-215] |
| 1000 to 10000 nM | < 1000 nM |  |  |  |  |  |  | > 200% | +++ (≥350) | COc1ccc(C(C)(C)C)cc1CN[C@H]1[C@H](C(C)(C)C)[C@@H](C(=O)O)N(C(=O)[C@@H](C)c2ccccc2)[C@H]1c1ccccc1 [II-326] |
| > 10000 nM | 1000 to 10000 nM |  |  |  |  |  |  | < 100% | ++ (≥150 and <350) | CC(C)(C)[C@@H]1[C@@H](NCc2cc(C(F)(F)F)ccc2OCCO)[C@@H](c2ccccc2)N(C(=O)C2CCCCC2)[C@H]1C(=O)O (racemic) [III-66] |
| 1000 to 10000 nM | < 1000 nM |  |  |  |  |  |  | > 200% | +++ (≥350) | COc1ncc(C2CCC2)cc1CN[C@H]1[C@H](C(C)(C)C)[C@@H](C(=O)O)N(C(=O)C2CCCC(F)(F)C2)[C@H]1c1ccccc1 (some centres unmarked) [II-492] |
| < 1000 nM | < 1000 nM | +++ (≥350) | 100 to 200% |  |  |  |  |  |  | COc1ncc(C(F)(F)F)cc1CN[C@H]1[C@H](C(C)(C)OC)[C@@H](C(=O)O)N(C(=O)C2CCCCC2)[C@H]1c1ccccc1 [Example 22, (2S,3S,4S,5S)-1-(cyclohexanecarbonyl)-3-(2-methoxypropan-2-yl)-4-({[2-methoxy-5-(trifluoromethyl)pyridin-3-yl]methyl}amino)-5-phenylpyrrolidine-2-carboxylic acid] |
| 1000 to 10000 nM | 1000 to 10000 nM | +++ (≥350) | > 200% |  |  |  |  |  |  | COc1ccc(C(C)(C)C)cc1CN[C@H]1[C@H](C(C)(C)C)[C@@H](C(=O)O)N(C(=O)Cc2ccsc2)[C@H]1c1ccccc1 [Example I-92] |
| 1000 to 10000 nM | 1000 to 10000 nM | ++ (≥150 and <350) | < 100% |  |  |  |  |  |  | COc1ccc(-c2cncnc2)cc1CN[C@H]1[C@H](C(C)(C)C)[C@@H](C(=O)O)N(C(=O)C2CCCCC2)[C@H]1c1ccccc1 [Example I-114] |
